Results taken from ChEMBL document CHEMBL5244273, “Tuberculosis: An Overview of the Immunogenic Response, Disease Progression, and Medicinal Chemistry Efforts in the Last Decade toward the Development of Potential Drugs for Extensively Drug-Resistant Tuberculosis Strains” (J Med Chem, 2021).
≈ marks a conversion by molar mass, not a printed value.

Assays:
Format in all cases: functional
[1] = test system: Mycobacterium tuberculosis; assay: Antitubercular activity against multidrug resistant Mycobacterium tuberculosis H37Rv assessed as inhibition of bacterial growth by alamar blue assay
[2] = test system: Mycobacterium tuberculosis; assay: Antitubercular activity against extensively drug resistant Mycobacterium tuberculosis H37Rv assessed as inhibition of bacterial growth by alamar blue assay
[3] = test system: Mycobacterium tuberculosis; assay: Antitubercular activity against multidrug resistant Mycobacterium tuberculosis clinical isolate 1 by resazurin microtitre assay
[4] = test system: Mycobacterium tuberculosis; assay: Antitubercular activity against multidrug resistant Mycobacterium tuberculosis clinical isolate 2 by resazurin microtitre assay
[5] = test system: Mycobacterium tuberculosis; assay: Antitubercular activity against multidrug resistant Mycobacterium tuberculosis clinical isolate 3 by resazurin microtitre assay
[6] = test system: Mycobacterium tuberculosis; assay: Antitubercular activity against multidrug resistant Mycobacterium tuberculosis clinical isolate 4 by resazurin microtitre assay
[7] = test system: Mycobacterium tuberculosis; assay: Antitubercular activity against multidrug resistant Mycobacterium tuberculosis clinical isolate 5 by resazurin microtitre assay
[8] = test system: Mycobacterium tuberculosis; assay: Antitubercular activity against multidrug resistant Mycobacterium tuberculosis clinical isolate 6 by resazurin microtitre assay
[9] = test system: Mycobacterium tuberculosis; assay: Antitubercular activity against multidrug resistant Mycobacterium tuberculosis clinical isolate 7 by resazurin microtitre assay
[10] = test system: Mycobacterium tuberculosis; assay: Antitubercular activity against multidrug resistant Mycobacterium tuberculosis clinical isolate 8 by resazurin microtitre assay
[11] = test system: Mycobacterium tuberculosis; assay: Antitubercular activity against multidrug resistant Mycobacterium tuberculosis clinical isolate 9 by resazurin microtitre assay
[12] = test system: Mycobacterium tuberculosis; assay: Antitubercular activity against multidrug resistant Mycobacterium tuberculosis clinical isolate 10 by resazurin microtitre assay
[13] = test system: Mycobacterium tuberculosis; assay: Antitubercular activity against multidrug resistant Mycobacterium tuberculosis clinical isolate 11 by resazurin microtitre assay
[14] = test system: Mycobacterium tuberculosis; assay: Antitubercular activity against extensively drug resistant Mycobacterium tuberculosis KMRC 0 0203-0 0197 by resazurin microtitre assay
[15] = test system: Mycobacterium tuberculosis; assay: Antitubercular activity against extensively drug resistant Mycobacterium tuberculosis clinical isolate 1 by resazurin microtitre assay
[16] = test system: Mycobacterium tuberculosis; assay: Antitubercular activity against extensively drug resistant Mycobacterium tuberculosis clinical isolate 2 by resazurin microtitre assay
[17] = test system: Mycobacterium tuberculosis; assay: Antitubercular activity against extensively drug resistant Mycobacterium tuberculosis clinical isolate 3 by resazurin microtitre assay
[18] = test system: Mycobacterium tuberculosis; assay: Antitubercular activity against extensively drug resistant Mycobacterium tuberculosis clinical isolate 4 by resazurin microtitre assay
[19] = test system: Mycobacterium tuberculosis; assay: Antitubercular activity against extensively drug resistant Mycobacterium tuberculosis clinical isolate 5 by resazurin microtitre assay
[20] = test system: Mycobacterium tuberculosis; assay: Antitubercular activity against extensively drug resistant Mycobacterium tuberculosis clinical isolate 6 by resazurin microtitre assay
[21] = test system: Mycobacterium tuberculosis; assay: Antitubercular activity against extensively drug resistant Mycobacterium tuberculosis clinical isolate 7 by resazurin microtitre assay
[22] = test system: Mycobacterium tuberculosis; assay: Antitubercular activity against extensively drug resistant Mycobacterium tuberculosis clinical isolate 8 by resazurin microtitre assay
[23] = test system: Mycobacterium tuberculosis; assay: Antitubercular activity against extensively drug resistant Mycobacterium tuberculosis clinical isolate 9 by resazurin microtitre assay
[24] = test system: Mycobacterium tuberculosis; assay: Antitubercular activity against extensively drug resistant Mycobacterium tuberculosis clinical isolate 10 by resazurin microtitre assay
[25] = test system: Mycobacterium tuberculosis; assay: Antitubercular activity against extensively drug resistant Mycobacterium tuberculosis clinical isolate 11 by resazurin microtitre assay
[26] = test system: Mycobacterium tuberculosis; assay: Antimycobacterial activity against isoniazid, streptomycin, ethambutol and ethionamide resistant Mycobacterium tuberculosis clinical isolate A
[27] = test system: Mycobacterium tuberculosis; assay: Antimycobacterial activity against isoniazid and ethionamide resistant Mycobacterium tuberculosis clinical isolate B
[28] = test system: Mycobacterium tuberculosis; assay: Antimycobacterial activity against isoniazid, streptomycin, and rifampicin resistant Mycobacterium tuberculosis clinical isolate C
[29] = test system: Mycobacterium tuberculosis; assay: Antimycobacterial activity against isoniazid and rifampicin resistant Mycobacterium tuberculosis clinical isolate D
[30] = test system: Mycobacterium tuberculosis; assay: Antimycobacterial activity against isoniazid and ethionamide resistant Mycobacterium tuberculosis clinical isolate E
[31] = test system: Mycobacterium tuberculosis; assay: Antimycobacterial activity against isoniazid, streptomycin and ethionamide resistant Mycobacterium tuberculosis clinical isolate F
[32] = test system: Mycobacterium tuberculosis; assay: Antimycobacterial activity against isoniazid, streptomycin, rifampicin, ethambutol and ethionamide resistant Mycobacterium tuberculosis clinical isolate G
[33] = test system: Mycobacterium tuberculosis; assay: Antimycobacterial activity against isoniazid, streptomycin, rifampicin, ethambutol, ethionamide and ofloxacin resistant Mycobacterium tuberculosis clinical isolate H
[34] = test system: Mycobacterium tuberculosis; assay: Antimycobacterial activity against Mycobacterium tuberculosis clinical isolate 199-00 harboring gyrA QRDR c270t (A90V) mutant and wild type gyrB
[35] = test system: Mycobacterium tuberculosis; assay: Antimycobacterial activity against Mycobacterium tuberculosis clinical isolate 581-17 harboring gyrA QRDR c270t (A90V) mutant and wild type gyrB
[36] = test system: Mycobacterium tuberculosis; assay: Antimycobacterial activity against Mycobacterium tuberculosis clinical isolate 410-11 harboring wild type and wild type gyrB
[37] = test system: Mycobacterium tuberculosis; assay: Antimycobacterial activity against Mycobacterium tuberculosis clinical isolate 742-0 harboring gyrA QRDR a282g (D94G) mutant and wild type gyrB
[38] = test system: Mycobacterium tuberculosis; assay: Antimycobacterial activity against Mycobacterium tuberculosis clinical isolate 666-0 harboring wild type gyrA and wild type gyrB
[39] = test system: Mycobacterium tuberculosis; assay: Antimycobacterial activity against Mycobacterium tuberculosis clinical isolate 383-0 harboring wild type gyrA and wild type gyrB
[40] = test system: Mycobacterium tuberculosis; assay: Antimycobacterial activity against Mycobacterium tuberculosis clinical isolate 152-0 harboring wild type gyrA and wild type gyrB
[41] = test system: Mycobacterium tuberculosis; assay: Antimycobacterial activity against Mycobacterium tuberculosis clinical isolate 427-18 harboring gyrA QRDR c270t (A90V) mutant and wild type gyrB
[42] = test system: Mycobacterium tuberculosis; assay: Antimycobacterial activity against Mycobacterium tuberculosis clinical isolate 775-0 harboring gyrA QRDR c270t (A90V) mutant and wild type gyrB
[43] = test system: Mycobacterium tuberculosis; assay: Antimycobacterial activity against Mycobacterium tuberculosis clinical isolate 124-0 harboring wild type gyrA and wild type gyrB
[44] = test system: Mycobacterium tuberculosis; assay: Antimycobacterial activity against Mycobacterium tuberculosis H37Rv harboring wild type gyrA and wild type gyrB
[45] = test system: Mycobacterium tuberculosis; assay: Antimycobacterial activity against multidrug-resistant Mycobacterium tuberculosis H37Rv assessed as inhibition of bacterial growth by alamar blue assay
[46] = test system: Mycobacterium tuberculosis; assay: Antimycobacterial activity against extensively-resistant Mycobacterium tuberculosis H37Rv assessed as inhibition of bacterial growth by alamar blue assay
[47] = test system: Mycobacterium tuberculosis; assay: Antimycobacterial activity against isoniazid resistant Mycobacterium tuberculosis clinical isolate incubated for 7 days by resazurin microtitre assay; conditions: 168 h, time 7 day
[48] = test system: Mycobacterium tuberculosis; assay: Antimycobacterial activity against isoniazid, rifampicin, ethambutol, pyrazinamide, capreomycin, and ethionamide resistant Mycobacterium tuberculosis clinical isolate incubated for 7 days by resazurin microtitre assay; conditions: 168 h, time 7 day
[49] = test system: Mycobacterium tuberculosis; assay: Antimycobacterial activity against isoniazid, rifampicin, ethambutol, pyrazinamide, streptomycin, capreomycin, amikacin, kanamycin, ofloxacin, and ethionamide resistant Mycobacterium tuberculosis clinical isolate incubated for 7 days by resazurin microtitre assay; conditions: 168 h, time 7 day

Molecule `O=C(Cc1ccccc1F)NNC(=O)c1ccncc1` has an MIC [1] of 62.5 mg/L (≈ 229 µM) and an MIC [2] of 250 mg/L (≈ 915 µM).
In the case of `CCN(CC)CCOc1c(C(=O)OC)c2c3c(oc2c2ccccc12)C(=O)c1ccccc1C3=O`, the MIC [3] is reported as 0.19 mg/L (≈ 0.403 µM), the MIC [4] is reported as 0.02 mg/L (≈ 0.0424 µM) and the MIC [5] is reported as 0.19 mg/L (≈ 0.403 µM). It also gave an MIC [6] of 0.19 mg/L (≈ 0.403 µM), an MIC [7] of 0.19 mg/L (≈ 0.403 µM) and an MIC [8] of 0.02 mg/L (≈ 0.0424 µM). The MIC [9] was 0.02 mg/L (≈ 0.0424 µM), the MIC [10] was 0.39 mg/L (≈ 0.827 µM) and the MIC [11] was 0.02 mg/L (≈ 0.0424 µM). For the same molecule, the MIC [12] was 0.02 mg/L (≈ 0.0424 µM), the MIC [13] was 0.39 mg/L (≈ 0.827 µM) and the MIC50 [14] was 0.19 mg/L (≈ 0.403 µM). For the same molecule, the MIC [15] was 0.02 mg/L (≈ 0.0424 µM), the MIC [16] was 0.02 mg/L (≈ 0.0424 µM) and the MIC [17] was 0.19 mg/L (≈ 0.403 µM). For the same molecule, the MIC [18] was 0.19 mg/L (≈ 0.403 µM), the MIC [19] was 0.19 mg/L (≈ 0.403 µM) and the MIC [20] was 0.19 mg/L (≈ 0.403 µM). It also gave an MIC [21] of 0.19 mg/L (≈ 0.403 µM), an MIC [22] of 0.19 mg/L (≈ 0.403 µM) and an MIC [23] of 0.19 mg/L (≈ 0.403 µM). For the same molecule, the MIC [24] was 0.02 mg/L (≈ 0.0424 µM) and the MIC [25] was 0.19 mg/L (≈ 0.403 µM).
`Oc1ccc(-c2nnc(S)o2)cc1` was tested, and the MIC [26] was greater than 32 mg/L, the MIC [27] was 8 mg/L (≈ 41.2 µM) and the MIC [28] was 16 mg/L (≈ 82.4 µM). The MIC [29] was greater than 32 mg/L, the MIC [30] was 16 mg/L (≈ 82.4 µM) and the MIC [31] was 8 mg/L (≈ 41.2 µM). It also gave an MIC [32] greater than 32 mg/L and an MIC [33] of 2 mg/L (≈ 10.3 µM).
`CC(C)(C)n1cc(C(=O)O)c(=O)c2cc(F)c(-c3cccnc3)cc21` showed an MIC [34] of 4 mg/L (≈ 11.8 µM), an MIC [35] of 2 mg/L (≈ 5.88 µM) and an MIC [36] of 4 mg/L (≈ 11.8 µM). The MIC [37] was 32 mg/L (≈ 94 µM), the MIC [38] was 4 mg/L (≈ 11.8 µM) and the MIC [39] was 2 mg/L (≈ 5.88 µM). It also gave an MIC [40] of 4 mg/L (≈ 11.8 µM), an MIC [41] of 1 mg/L (≈ 2.94 µM) and an MIC [42] of 2 mg/L (≈ 5.88 µM). It also gave an MIC [43] of 1 mg/L (≈ 2.94 µM) and an MIC [44] of 0.5 mg/L (≈ 1.47 µM).
Work on `CC(C)(C)n1cc(C(=O)O)c(=O)c2cc(F)c(-c3ccc(O)cc3)cc21` yielded an MIC [34] of 2 mg/L (≈ 5.63 µM), an MIC [35] of 8 mg/L (≈ 22.5 µM) and an MIC [36] of 2 mg/L (≈ 5.63 µM). For the same molecule, the MIC [37] was 2 mg/L (≈ 5.63 µM), the MIC [38] was 2 mg/L (≈ 5.63 µM) and the MIC [39] was 2 mg/L (≈ 5.63 µM). It also gave an MIC [40] of 2 mg/L (≈ 5.63 µM), an MIC [41] of 1 mg/L (≈ 2.81 µM) and an MIC [42] of 2 mg/L (≈ 5.63 µM). For the same molecule, the MIC [43] was 1 mg/L (≈ 2.81 µM) and the MIC [44] was 1 mg/L (≈ 2.81 µM).
`Cc1cc(O)n2nc(Nc3ccc(Cl)c(Cl)c3)c(C(N)=O)c2n1` was tested, and the MIC [45] was 12.5 mg/L (≈ 35.5 µM) and the MIC [46] was 50 mg/L (≈ 142 µM).
In the case of `Cc1ccc(NC(=O)c2c(Nc3ccc(Cl)cc3)nn3c(O)cc(C)nc23)cc1`, the MIC [45] is reported as 6.25 mg/L (≈ 15.3 µM) and the MIC [46] is reported as greater than 100 mg/L.
In the case of `CC(=O)N1/C(=C/c2ccc(-c3ccc(C)cc3)cc2)C(=O)c2ccccc21`, the MIC [47] is reported as 17.7 µM (≈ 6.26 µg/mL), the MIC [48] is reported as 17.7 µM (≈ 6.26 µg/mL) and the MIC [49] is reported as 17.7 µM (≈ 6.26 µg/mL).
`CC(=O)N1/C(=C/c2ccc(-c3ccccc3)cc2)C(=O)c2ccccc21` was tested, and the MIC [47] was 12.3 µM (≈ 4.17 µg/mL), the MIC [48] was 12.3 µM (≈ 4.17 µg/mL) and the MIC [49] was 12.3 µM (≈ 4.17 µg/mL).
